Patent US7026349B2, “Sulfonamides” (SmithKline Beecham Corporation, priority 2001, dated 2006)

Target: T1, human and rat GPR-14 (UniProt Q9UKP6)
T1 sequence (Q9UKP6 1-389): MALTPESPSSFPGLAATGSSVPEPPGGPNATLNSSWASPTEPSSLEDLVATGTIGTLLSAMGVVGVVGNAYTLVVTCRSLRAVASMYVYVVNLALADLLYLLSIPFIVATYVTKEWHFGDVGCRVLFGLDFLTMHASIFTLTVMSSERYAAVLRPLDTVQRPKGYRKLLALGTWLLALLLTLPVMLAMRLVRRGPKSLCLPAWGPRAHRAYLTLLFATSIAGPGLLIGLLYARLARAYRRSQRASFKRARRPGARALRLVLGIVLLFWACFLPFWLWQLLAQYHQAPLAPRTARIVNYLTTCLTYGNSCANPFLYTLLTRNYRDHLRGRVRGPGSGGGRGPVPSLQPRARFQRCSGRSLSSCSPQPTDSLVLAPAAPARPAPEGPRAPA
Test: Radioligand binding ([125I] h-U-II) to HEK-293 cell membranes containing cloned GPR-14
Settings: stable cloned GPR-14, 200 pM [125I] h-U-II, species of receptor not given

Ki: 270 nM
Compound: COc1cc(Br)c(S(=O)(=O)Nc2ccc(Cl)c(O[C@H]3CCN(C)C3)c2)cc1OC [Example 10, 2-Bromo-N-[4-chloro-3-((S)-1-methyl-pyrrolidin-3-yloxy)-phenyl]-4,5-dimethoxy-benzenesulfonamide]
